According to ChEMBL document CHEMBL1201862, “PubChem BioAssay data set” (2004):
The source made the active and inactive calls.

Columns and labels:
[1] = NIH:OVCAR-3 ovarian cancer cell cytotoxicity, dose response, PAX8 inhibitor project, plate reader, dry powder samples (AID 743044); assay type: functional, cell-based
[2] = cytotoxicity in OVCAR8 ovarian cancer cells, dose response, PAX8 project, cell-based, plate reader, dry powder samples (AID 743197); assay type: functional; settings: OVCAR-8
[3] = non-specific cell cytotoxicity, dose response, cytotoxicity control for PAX8 inhibitor project, plate reader, dry powder samples (AID 743021); assay type: functional, cell-based
[4] = IGROV1 ovarian cancer cell cytotoxicity, dose response, PAX8 inhibitor project, plate reader, dry powder samples (AID 743043); assay type: functional, cell-based; settings: IGROV-1
Paired box protein Pax-8 = Paired box protein Pax-8 (Homo sapiens, UniProt Q06710); experiment: inhibitors of PAX8-driven TPO luciferase reporter, dose response, RMG-I cells, cherry-pick (AID 687027); assay type: functional, cell-based;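 note: luciferase reporter driven by Pax8 target thyroperoxidase promoter measured by SteadyGlo luminescence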
Sequence of Paired box protein Pax-8 (Q06710 whole entry): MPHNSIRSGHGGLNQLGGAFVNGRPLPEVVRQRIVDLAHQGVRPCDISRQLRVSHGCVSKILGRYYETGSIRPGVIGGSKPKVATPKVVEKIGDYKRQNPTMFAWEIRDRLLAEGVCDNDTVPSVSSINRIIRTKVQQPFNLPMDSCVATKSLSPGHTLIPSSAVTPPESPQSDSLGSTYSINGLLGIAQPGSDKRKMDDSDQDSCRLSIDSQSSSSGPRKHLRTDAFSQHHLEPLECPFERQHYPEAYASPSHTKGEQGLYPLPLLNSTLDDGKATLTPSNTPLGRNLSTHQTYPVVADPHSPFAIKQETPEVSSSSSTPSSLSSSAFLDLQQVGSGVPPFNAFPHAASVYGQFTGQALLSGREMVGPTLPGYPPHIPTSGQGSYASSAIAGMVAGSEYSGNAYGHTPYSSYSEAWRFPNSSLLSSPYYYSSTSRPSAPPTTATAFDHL

[5] = inhibitors of PGC1a acetylation in cells, dose response, cell-based, cherry-picked samples (AID 720514); assay type: functional;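 note: potency may reflect raised or lowered acetylation signal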
[6] = A549 cell cytotoxicity, dose response, cytotoxicity control, plate reader, cherry-pick, antagonist series (AID 743412); assay type: functional, cell-based
[7] = HEK293 cell cytotoxicity, dose response, cytotoxicity control, plate reader, cherry-picked samples (AID 743446); assay type: functional, cell-based
[8] = HepG2 cell cytotoxicity, dose response, cytotoxicity control, plate reader, cherry-pick, antagonist series (AID 743416); assay type: functional, cell-based
[9] = MC4R antagonists, dose response, counter-screen for LGR2 antagonist project, cell-based, plate reader, cherry pick (AID 743444); assay type: functional;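 note: transfected HEK 293 cells stimulated with alpha-MSH peptide; potency of inhibitors of the alpha-MSH evoked signal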
cells [10] = experiment: cells
Major prion protein = Major prion protein (Homo sapiens, UniProt P04156); assay type: functional, cell-based
Genome polyprotein = Genome polyprotein (dengue virus type 2, UniProt P29990); experiment: Dengue-2 NS5 methyltransferase inhibitors, primary screen, biochemical, confirmation dose response (AID 588689); assay type: functional
Sequence of Genome polyprotein (P29990 2492-3391 limits assumed): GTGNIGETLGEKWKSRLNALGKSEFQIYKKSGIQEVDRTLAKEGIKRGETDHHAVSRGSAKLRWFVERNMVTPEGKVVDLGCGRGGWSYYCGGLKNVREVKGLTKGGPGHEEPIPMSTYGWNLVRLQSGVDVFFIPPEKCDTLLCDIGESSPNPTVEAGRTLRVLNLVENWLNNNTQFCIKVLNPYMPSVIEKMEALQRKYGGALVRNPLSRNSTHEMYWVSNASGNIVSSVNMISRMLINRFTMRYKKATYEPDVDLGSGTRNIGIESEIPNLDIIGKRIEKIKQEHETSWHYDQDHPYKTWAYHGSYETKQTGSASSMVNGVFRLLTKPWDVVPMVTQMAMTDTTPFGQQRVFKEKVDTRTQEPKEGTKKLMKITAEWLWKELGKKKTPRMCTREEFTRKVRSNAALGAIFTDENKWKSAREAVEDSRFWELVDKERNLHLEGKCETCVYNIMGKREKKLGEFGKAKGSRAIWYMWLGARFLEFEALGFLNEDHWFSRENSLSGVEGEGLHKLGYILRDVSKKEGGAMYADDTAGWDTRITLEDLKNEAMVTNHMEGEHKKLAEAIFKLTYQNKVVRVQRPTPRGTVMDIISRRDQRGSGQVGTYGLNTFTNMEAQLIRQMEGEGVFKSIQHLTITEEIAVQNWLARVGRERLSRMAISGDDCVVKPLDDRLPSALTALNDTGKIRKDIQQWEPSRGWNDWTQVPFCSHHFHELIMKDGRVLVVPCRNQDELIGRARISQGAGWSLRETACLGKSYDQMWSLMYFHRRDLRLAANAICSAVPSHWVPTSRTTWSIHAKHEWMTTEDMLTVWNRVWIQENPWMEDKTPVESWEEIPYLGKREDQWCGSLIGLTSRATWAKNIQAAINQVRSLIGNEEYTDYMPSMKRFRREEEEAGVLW

Caspase-6 = target: T1, Caspase-6 (Homo sapiens, UniProt P55212); experiment: human caspase-6 inhibitors, dose response, biochemical, VEID-R110 fluorescence, cherry-pick (AID 720632)
T1 sequence (P55212 whole entry): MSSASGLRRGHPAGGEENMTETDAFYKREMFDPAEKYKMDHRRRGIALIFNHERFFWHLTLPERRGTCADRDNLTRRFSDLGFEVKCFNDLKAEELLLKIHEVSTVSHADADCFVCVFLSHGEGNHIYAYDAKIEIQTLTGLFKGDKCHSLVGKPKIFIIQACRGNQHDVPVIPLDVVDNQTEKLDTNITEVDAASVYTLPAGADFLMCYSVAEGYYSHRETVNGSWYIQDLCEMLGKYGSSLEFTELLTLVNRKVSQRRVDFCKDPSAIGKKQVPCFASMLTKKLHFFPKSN

[11] = target: T2, Oxysterols receptor LXR-beta (Homo sapiens, UniProt P55055); experiment: LXR agonists, Gal4 luciferase reporter, dose response, counter-screen for ssDAF-12 agonist project, cell-based, luminescence, HEK293, S. stercoralis campaign (AID 720737); assay type: functional; settings: read-out: IC50 (the source's name)
T2 sequence (P55055 whole entry): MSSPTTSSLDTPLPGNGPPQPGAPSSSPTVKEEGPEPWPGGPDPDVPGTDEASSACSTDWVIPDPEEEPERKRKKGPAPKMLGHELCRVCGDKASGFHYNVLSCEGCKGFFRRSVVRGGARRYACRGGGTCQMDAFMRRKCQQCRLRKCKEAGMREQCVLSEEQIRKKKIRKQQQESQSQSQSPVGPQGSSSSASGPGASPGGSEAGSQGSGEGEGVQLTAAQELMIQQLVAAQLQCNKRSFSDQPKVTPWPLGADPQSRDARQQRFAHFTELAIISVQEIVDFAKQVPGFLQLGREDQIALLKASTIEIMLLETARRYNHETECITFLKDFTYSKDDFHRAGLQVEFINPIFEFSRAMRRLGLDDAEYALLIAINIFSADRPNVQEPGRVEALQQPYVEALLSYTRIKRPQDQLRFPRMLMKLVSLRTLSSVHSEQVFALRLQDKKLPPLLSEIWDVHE

[12] = Luminescence-based cell-based high throughput dose response assay to identify activators of the DAF-12 from the parasite S. stercoralis (ssDAF-12).; assay type: functional
[13] = M. tuberculosis H37Rv growth inhibitors, H37Rv strain (AID 1626); assay type: functional
[14] = target: Voltage-dependent T-type calcium channel subunit alpha-1H (Homo sapiens, UniProt O95180); assay type: functional;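 note: channel activity triggered by adding a high calcium stimulation buffer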
Sequence of Voltage-dependent T-type calcium channel subunit alpha-1H (O95180 whole entry): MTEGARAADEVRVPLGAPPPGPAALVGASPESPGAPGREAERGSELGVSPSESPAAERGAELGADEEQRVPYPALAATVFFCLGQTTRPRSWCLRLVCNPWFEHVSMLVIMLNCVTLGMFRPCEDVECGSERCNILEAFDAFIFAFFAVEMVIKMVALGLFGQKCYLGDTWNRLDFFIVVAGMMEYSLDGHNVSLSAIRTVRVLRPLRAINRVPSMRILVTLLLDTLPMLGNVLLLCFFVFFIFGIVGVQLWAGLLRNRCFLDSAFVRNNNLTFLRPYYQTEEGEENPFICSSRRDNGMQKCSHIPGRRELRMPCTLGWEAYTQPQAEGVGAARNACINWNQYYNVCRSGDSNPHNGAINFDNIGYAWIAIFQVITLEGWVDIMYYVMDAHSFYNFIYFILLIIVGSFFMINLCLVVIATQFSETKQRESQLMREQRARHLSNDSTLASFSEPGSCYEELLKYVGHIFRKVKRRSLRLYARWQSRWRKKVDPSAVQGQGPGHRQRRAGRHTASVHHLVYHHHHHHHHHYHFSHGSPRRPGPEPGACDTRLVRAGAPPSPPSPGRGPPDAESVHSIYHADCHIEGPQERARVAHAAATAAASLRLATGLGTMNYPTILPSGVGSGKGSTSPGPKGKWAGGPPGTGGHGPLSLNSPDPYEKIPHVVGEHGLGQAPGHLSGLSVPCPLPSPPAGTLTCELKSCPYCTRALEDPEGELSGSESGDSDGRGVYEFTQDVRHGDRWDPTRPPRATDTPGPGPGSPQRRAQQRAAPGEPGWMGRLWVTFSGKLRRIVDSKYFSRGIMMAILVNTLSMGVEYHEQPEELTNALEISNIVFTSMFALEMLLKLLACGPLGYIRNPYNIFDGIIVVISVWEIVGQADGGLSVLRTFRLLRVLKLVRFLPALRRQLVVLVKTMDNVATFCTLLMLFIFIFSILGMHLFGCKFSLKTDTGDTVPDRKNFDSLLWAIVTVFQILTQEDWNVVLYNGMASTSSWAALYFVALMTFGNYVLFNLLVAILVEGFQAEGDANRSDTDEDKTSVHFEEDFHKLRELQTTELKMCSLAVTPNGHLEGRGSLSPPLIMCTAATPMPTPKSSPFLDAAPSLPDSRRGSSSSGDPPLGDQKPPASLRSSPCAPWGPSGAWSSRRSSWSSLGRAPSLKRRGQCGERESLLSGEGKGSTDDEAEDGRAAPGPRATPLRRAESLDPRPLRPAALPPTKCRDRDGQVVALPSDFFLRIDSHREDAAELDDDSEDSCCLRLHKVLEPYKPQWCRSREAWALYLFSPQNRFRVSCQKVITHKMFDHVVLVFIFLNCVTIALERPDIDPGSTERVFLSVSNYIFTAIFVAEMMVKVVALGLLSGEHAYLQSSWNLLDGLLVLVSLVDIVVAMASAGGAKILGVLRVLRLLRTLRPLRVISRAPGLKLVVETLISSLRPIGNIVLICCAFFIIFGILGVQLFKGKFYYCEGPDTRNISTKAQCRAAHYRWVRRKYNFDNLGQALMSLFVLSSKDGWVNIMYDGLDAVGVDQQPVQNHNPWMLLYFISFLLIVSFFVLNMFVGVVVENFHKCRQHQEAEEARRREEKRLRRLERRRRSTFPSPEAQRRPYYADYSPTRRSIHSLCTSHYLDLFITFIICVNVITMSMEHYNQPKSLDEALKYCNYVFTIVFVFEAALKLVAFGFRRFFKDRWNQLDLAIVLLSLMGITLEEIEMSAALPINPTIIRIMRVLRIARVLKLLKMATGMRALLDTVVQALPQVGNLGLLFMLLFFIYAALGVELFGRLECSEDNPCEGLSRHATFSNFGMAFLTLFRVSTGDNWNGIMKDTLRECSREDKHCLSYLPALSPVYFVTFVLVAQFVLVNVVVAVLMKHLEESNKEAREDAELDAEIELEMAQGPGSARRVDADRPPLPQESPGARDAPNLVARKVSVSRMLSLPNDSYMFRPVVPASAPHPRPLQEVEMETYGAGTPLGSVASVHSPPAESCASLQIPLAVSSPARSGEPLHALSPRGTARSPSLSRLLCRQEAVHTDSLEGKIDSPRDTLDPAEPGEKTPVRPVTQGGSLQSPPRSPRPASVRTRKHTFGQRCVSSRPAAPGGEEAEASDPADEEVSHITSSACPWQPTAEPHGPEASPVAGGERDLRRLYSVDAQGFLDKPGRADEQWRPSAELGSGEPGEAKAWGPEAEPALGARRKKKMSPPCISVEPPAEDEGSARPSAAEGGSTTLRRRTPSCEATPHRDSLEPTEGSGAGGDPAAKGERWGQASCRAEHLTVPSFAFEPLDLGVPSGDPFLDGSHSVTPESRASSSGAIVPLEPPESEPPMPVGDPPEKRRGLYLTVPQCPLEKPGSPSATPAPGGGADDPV

[15] = target: T3, Trace amine-associated receptor 1 (Homo sapiens, UniProt Q96RJ0); experiment: Fluorescence-based cell-based high throughput dose response assay to identify agonists of the human trace amine associated receptor 1 (TAAR1).; assay type: functional
T3 sequence (Q96RJ0 whole entry): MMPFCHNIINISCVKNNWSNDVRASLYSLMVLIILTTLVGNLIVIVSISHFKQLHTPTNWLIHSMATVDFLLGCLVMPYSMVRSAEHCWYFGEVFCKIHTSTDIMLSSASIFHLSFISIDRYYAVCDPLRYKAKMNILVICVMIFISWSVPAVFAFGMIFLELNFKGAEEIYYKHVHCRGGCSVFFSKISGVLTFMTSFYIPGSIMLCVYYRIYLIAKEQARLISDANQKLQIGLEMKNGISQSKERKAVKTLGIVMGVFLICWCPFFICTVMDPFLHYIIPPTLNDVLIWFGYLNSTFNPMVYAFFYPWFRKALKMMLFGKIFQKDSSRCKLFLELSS

cells [16] = assay type: functional, cell-based
cells [17] = assay type: functional, cell-based; remark: listed apart in the source
[18] = target: T3, Trace amine-associated receptor 1; experiment: Counterscreen for agonists of the human trace amine associated receptor 1 (hTAAR1): Fluorescence-based cell-based high throughput dose response assay to identify hTAAR1 agonist that also desensitize TAAR1 receptor response.; assay type: functional
Coagulation factor XII = target: T4, Coagulation factor XII (Homo sapiens, UniProt P00748); assay type: functional;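 note: activated factor XIIa alpha cleaving a fluorogenic AMC peptide substrate; inhibitor potency from loss of enzyme activity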
T4 sequence (P00748 whole entry): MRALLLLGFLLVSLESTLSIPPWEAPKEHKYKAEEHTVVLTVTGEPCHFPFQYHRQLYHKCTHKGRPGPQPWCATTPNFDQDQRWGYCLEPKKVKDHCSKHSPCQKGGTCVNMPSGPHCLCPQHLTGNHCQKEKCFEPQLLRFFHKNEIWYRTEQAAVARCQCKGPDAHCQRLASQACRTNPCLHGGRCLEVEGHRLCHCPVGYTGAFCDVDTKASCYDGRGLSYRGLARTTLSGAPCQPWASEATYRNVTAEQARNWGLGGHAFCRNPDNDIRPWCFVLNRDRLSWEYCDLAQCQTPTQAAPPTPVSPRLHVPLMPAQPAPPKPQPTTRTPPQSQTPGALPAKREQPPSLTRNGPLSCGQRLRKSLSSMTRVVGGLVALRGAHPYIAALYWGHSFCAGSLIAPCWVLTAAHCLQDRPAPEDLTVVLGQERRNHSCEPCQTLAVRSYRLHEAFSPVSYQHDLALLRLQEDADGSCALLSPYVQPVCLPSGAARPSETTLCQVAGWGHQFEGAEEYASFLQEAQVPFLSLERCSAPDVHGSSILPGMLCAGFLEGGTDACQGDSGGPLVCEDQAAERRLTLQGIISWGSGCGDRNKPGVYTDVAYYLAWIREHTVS

[19] = cytotoxicity toward NIH3T3 fibroblasts, dose response, counter-screen, cell-based, ATP luminescence, mouse fibroblasts (AID 2010); assay type: functional;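 note: cells exposed to compound for about 90 hours before reading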
[20] = inhibitors of intracellular T. cruzi replication, confirmation, NIH3T3 host cells, beta-gal luminescence (AID 2044); assay type: functional, cell-based;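 note: intracellular parasites grown in NIH/3T3 mouse fibroblasts as host cells; luminescent beta-galactosidase reporter signal from transgenic T. cruzi replicating inside host cells; inhibitors lower the luminescence signal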
[21] = target: T5, Mannose-6-phosphate isomerase (Homo sapiens, UniProt P34949); experiment: human PMI inhibitors, high substrate, primary screen, biochemical, fluorescence intensity, high mannose 6-phosphate (AID 1220)
T5 sequence (P34949 whole entry): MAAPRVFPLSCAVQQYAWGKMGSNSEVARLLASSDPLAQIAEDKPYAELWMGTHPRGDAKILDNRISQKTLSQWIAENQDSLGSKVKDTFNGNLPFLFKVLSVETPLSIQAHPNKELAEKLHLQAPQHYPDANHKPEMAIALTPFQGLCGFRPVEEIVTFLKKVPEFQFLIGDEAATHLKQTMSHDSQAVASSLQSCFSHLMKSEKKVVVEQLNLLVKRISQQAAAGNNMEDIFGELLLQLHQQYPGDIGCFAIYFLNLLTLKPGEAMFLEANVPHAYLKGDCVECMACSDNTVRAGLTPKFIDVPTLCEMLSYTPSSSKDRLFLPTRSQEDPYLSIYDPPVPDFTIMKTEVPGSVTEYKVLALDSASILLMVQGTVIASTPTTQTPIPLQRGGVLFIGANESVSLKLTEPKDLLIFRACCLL

Protein RecA = target: T6, Protein RecA (Mycobacterium tuberculosis, UniProt P9WHJ3); experiment: Fluorescence Cell-Free Homogeneous Dose Retest to Identify Inhibitors of RecA-Intein Splicing Activity. [Related pubchem assays (depositor defined):AID2097, AID2223, AID489010, AID492950]; assay type: functional
T6 sequence (P9WHJ3 whole entry): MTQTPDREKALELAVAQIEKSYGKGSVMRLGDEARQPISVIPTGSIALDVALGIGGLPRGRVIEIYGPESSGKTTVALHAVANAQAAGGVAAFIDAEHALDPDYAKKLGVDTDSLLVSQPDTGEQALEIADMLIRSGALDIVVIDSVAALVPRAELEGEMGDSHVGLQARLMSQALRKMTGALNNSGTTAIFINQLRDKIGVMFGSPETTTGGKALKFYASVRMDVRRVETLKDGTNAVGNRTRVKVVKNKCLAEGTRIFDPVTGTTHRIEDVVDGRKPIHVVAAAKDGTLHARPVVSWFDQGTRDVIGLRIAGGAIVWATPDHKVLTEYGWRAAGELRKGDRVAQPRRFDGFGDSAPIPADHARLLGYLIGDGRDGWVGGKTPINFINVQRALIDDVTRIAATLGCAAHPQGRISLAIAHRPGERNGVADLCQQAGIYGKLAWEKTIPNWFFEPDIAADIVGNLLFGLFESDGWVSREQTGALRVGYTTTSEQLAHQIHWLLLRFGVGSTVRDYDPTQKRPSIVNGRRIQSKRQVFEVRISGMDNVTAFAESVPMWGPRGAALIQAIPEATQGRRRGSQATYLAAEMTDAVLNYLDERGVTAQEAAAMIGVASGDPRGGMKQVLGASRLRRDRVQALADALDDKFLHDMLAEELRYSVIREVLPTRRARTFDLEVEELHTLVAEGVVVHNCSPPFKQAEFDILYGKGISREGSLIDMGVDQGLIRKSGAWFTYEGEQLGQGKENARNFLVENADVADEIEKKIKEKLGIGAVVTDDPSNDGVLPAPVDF

SMILES: COc1ccc(-c2ccc([C@@H]3[C@@H]4CN(C(=O)Nc5cccc(F)c5)C[C@H]3N4)cc2)cc1
- AC50 [1]: 18.9 µM (active)
- AC50 [2]: 58.5 µM (active)
- AC50 [3]: 41 µM (active)
- AC50 [4]: 28.4 µM (active)
- AC50 (Paired box protein Pax-8): 5.09 µM (active)

SMILES: CC(C)C#Cc1ccc2c(c1)O[C@@H](CN(C)Cc1ccccc1)[C@@H](C)CN([C@@H](C)CO)S2(=O)=O
- AC50 [5]: 16 µM (active)

SMILES: Cc1ccc(S(=O)(=O)N(C)C[C@H]2Oc3cc(C#Cc4ccncc4)ccc3S(=O)(=O)N([C@H](C)CO)C[C@H]2C)cc1
- AC50 [1]: 9.03 µM (active)
- AC50 [5]: 4.27 µM (active)
- AC50 [2]: 17.4 µM (active)
- AC50 (Paired box protein Pax-8): 4.03 µM (active)

SMILES: C[C@@H]1CCCCO[C@H](CN(C)CC2CCCCC2)[C@H](C)CN([C@H](C)CO)C(=O)c2cc(NS(=O)(=O)c3ccccc3)ccc2O1
- AC50 [1]: 55 µM (active)
- AC50 [6]: 17.1 µM (active)
- AC50 [7]: 30.8 µM (active)
- AC50 [8]: 27.6 µM (active)
- AC50 [9]: 42.6 µM (active)
- AC50 [2]: > 70 µM (inactive)
- AC50 [3]: 39.7 µM (active)
- AC50 [4]: 57.1 µM (active)
- AC50 (Paired box protein Pax-8): 20.1 µM (active)

SMILES: Cc1cc(SCCC(=O)O)nc2c(C)cccc12
- IC50 (cells [10]): > 138 µM (inactive)
- IC50 (Major prion protein): 4.67 µM (active)

SMILES: COC(=O)c1c(C)oc2c1cc(NS(=O)(=O)c1ccc(C(=O)O)cc1)c1ccccc12
- IC50 (Genome polyprotein): 69 µM (active)
- AC50 (Caspase-6): 22.6 µM (active)

SMILES: Cc1ccc(NC(=O)c2ccccn2)c(Br)c1
- EC50 [11]: > 67.5 µM (inactive)
- IC50 [12]: > 67.5 µM (inactive)

SMILES: COC(=O)C1=C(C)N(Cc2cccc(C(F)(F)F)c2)C(NCc2ccc(OC)cc2)=NC1c1cccc(F)c1 (stereo not given)
- AC50 [3]: 33.3 µM (active)
- AC50 (Paired box protein Pax-8): 11.5 µM (active)

SMILES: Cc1ccc(NC(=O)COC(=O)CC2CCCC2)cc1Cl
- IC50 [13]: > 100 µM (active)

SMILES: CC(=O)Nc1cccc(OCc2ccc(F)cc2)c1
- IC50 [13]: > 100 µM (active)

SMILES: CN(CC(=O)Nc1cccc(F)c1)C(=O)c1cccc(S(=O)(=O)N2CCN(Cc3ccccc3)CC2)c1
- EC50 [11]: > 67.5 µM (inactive)
- IC50 [12]: > 67.5 µM (inactive)

SMILES: Cc1ccc(-c2nc(CS(=O)(=O)CC(=O)N3CCc4ccccc4C3)c(C)o2)cc1
- EC50 [14]: 2.21 µM (active)
- EC50 [15]: 2.23 µM (active)
- IC50 (cells [16]): > 29.9 µM (inactive)
- EC50 (cells [17]): > 29.9 µM (inactive)
- IC50 [18]: 5.4 µM (active)
- IC50 (Coagulation factor XII): > 50 µM (inactive)

SMILES: Cc1ccc(NC(=O)Nc2cccc(C(F)(F)F)c2)nc1
- EC50 [11]: > 67.6 µM (inactive)
- IC50 [12]: > 67.6 µM (inactive)

SMILES: COCc1ccc(CN2CCC(n3nccc3NC(=O)c3ccc4c(c3)OCO4)CC2)o1
- AC50 [5]: 29.9 µM (active)

SMILES: CCCCn1c(N)c(C(=O)NCc2cccs2)c2nc3ccccc3nc21
- EC50 [19]: > 60 µM (not active)
- EC50 [20]: 2.83 µM (active)
- IC50 [21]: > 50 µM (not active)
- EC50 (Protein RecA): 47.4 µM (inconclusive)

SMILES: Cc1ccc(Cc2cnc(NC(=O)C3CCCO3)s2)cc1 (stereo not given)
- IC50 [13]: > 100 µM (active)
